The text below walks through data of patent US20170042171A1, “METHOD OF HANDLING MANGOES” (AGROFRESH, INC., priority 2011, published 2017).

Test [1] deals with Mangos, Tommy Atkins variety. Put plainly: Pulp firmness of mangoes after 1-MCP at different concentrations with or without modified B bag, shelf-storage simulation (Example 2). Format: in vivo, Mangifera indica. The conditions noted are these: for Pulp Firmness Difference from Control: 10° C. 15 hours, then ca. 22° C. three days. The method, then: (§1) Mangoes were evaluated for peel and pulp firmness, which are commercial measures of mango quality, using the following test procedure: • Determination of peel resistant to penetration (peel firmness) was accomplished using a Chatillon penetrometer (model DPPH-100) equipped with a chisel tip (6 mm wide). • Readings were obtained choosing randomly six fruit from each treatment. Each fruit was placed by the side on the penetrometer and then the tip of the instrument (chisel) was stalled into the fruit (about 8 mm deep). Six fruits per treatment were selected and readings were used for obtaining the average value of peel firmness for each treatment. • For testing flesh firmness, the other side of the fruit selected for testing peel resistant to penetration was used. The side not tested for peel resistance to penetration was peeled using a standard fruit peeler (which removed approximately a 2 mm thick peel tissue section). The total area peeled was approximately five square centimeters. • Immediately after removing the peel, each fruit was placed on the penetrometer and a new value of firmness was obtained using the chisel tip (to a depth of about 8 mm). Average values were calculated using six fruits per treatment.
This experiment utilized a modified version of the “B bag”. Rather than three layers, the bag consisted of two extruded layers in an 80/20 ratio with the following composition:
The film was perforated using a laser to give an average hole diameter of 104 micrometers with 52 perforations per bag in four rows. The OTR of the bag was ca. 370 cc/hour.
Mangos, Tommy Atkins variety imported from Guatemala, were kept at a temperature of 10° C. for three days. Portions of the mangos were subjected to one of eight different treatments; control (no 1-MCP or bag), 1-MCP only at 500 ppb, bag only, and bag plus one of five different 1-MCP application rates (50, 100, 500, 1000, and 2500 ppb). Each mango weighed ca. 1.1 Kg. For those mangos placed in bags, the bag contained four fruits for a total of 4.4 Kg of fruit per bag. The 1-MCP applications were made at a temperature of 10° C. for 15 hours. The control and each treated sample were then kept at room temperature (ca. 22° C.) for three days to simulate shelf-storage. Bags were kept closed during the shelf-storage simulation. Pulp firmness was then determined with the following results: […]

For test [2], the system named is mangoes, Tommy Adkins cultivar. Nature of the test: Pulp firmness of mangoes after MAP bag and/or 1-MCP exposure prior to transport simulation (Example 1). Format: in vivo, Mangifera indica. The method, then: as §1
Fruit was harvested from a commercial mango farm (Mango Rica S.A.) located in Liberia, Guanacaste. Costa Rica on Apr. 7, 2011. […]

As for `CC1=CC1` [1-MCP, 1-methylcyclopropene], the “Pulp Firmness Difference from Control” value is 0.43 Lb in test [1] (Treatment 1: 1-MCP 500 ppb, Bag No); 2.00 Lb in test [1] (Treatment 3: 1-MCP 50 ppb, Bag Yes); 2.70 Lb in test [1] (Treatment 4: 1-MCP 100 ppb, Bag Yes); 3.35 Lb in test [1] (Treatment 5: 1-MCP 500 ppb, Bag Yes); 2.60 Lb in test [1] (Treatment 6: 1-MCP 1000 ppb, Bag Yes); 3.29 Lb in test [1] (Treatment 7: 1-MCP 2500 ppb, Bag Yes). Further, in test [1] (sum of 1-MCP 500 ppb alone and bag alone), the “expected additive effect of the 1-MCP treatment and MAP bag alone on pulp firmness” value is recorded as 1.96 lb. The “Mango Pulp Firmness Difference (Reported as change from control*)” value in test [2] (6 mangoes per bag, 500 ppb 1-MCP for 12 hours prior to transport simulation (10-12° C., 18 days), then 18° C.) is listed as −0.03 Lbs. In addition, in test [2] (MCP exposure prior to transport simulation), the “mango quality based on pulp firmness (in words)” value was “did not improve the quality of the mangoes”.
